Assay results: PMC10421158, “In Vitro and In Silico Analysis of the Anticancer Effects of Eurycomanone and Eurycomalactone from Eurycoma longifolia” (Plants, 2023)

Columns and labels:
[1] = tested on: ovarian (A2780) cancer cell line; experiment: Sulforhodamine B (SRB) cell viability assay, A2780; type: cell-based; conditions: Homo sapiens, A2780, 72 h, read-out: IC50 A2780
Description: (§1) The cancer cell lines used for this study were ovarian cancer (A2780), cervical cancer (HeLa) and colorectal cancer (HT29) as well as normal cardiomyocyte (H9C2) and liver (WRL-68) cell lines. All cell lines were purchased from American Type Culture Collections except A2780, which were purchased from the European Collection of Authenticated Cell Cultures. These cells were subcultured in Dulbecco’s Modified Eagle’s medium (Sigma-Aldrich, St. Louis, MO, USA) and supplemented with 10% fetal bovine serum (Sigma, USA), 1% penicillin–streptomycin (Sigma, USA), 1% amphotericin B (Sigma, USA) and 1% gentamicin (Sigma, USA). The cells were seeded in each well of 96 well plates and incubated in a humidified incubator at 37 °C and 5% carbon dioxide in air for 24 h. Each cell line was then treated with eurycomanone and eurycomalactone at five different concentrations (0.08, 0.4, 2, 10 and 50 µM) in triplicate. Cisplatin and methotrexate (Sigma, USA), known chemo-drugs, were also treated on these cell lines at five different concentrations (0.08, 0.4, 2, 10, 50 µM for cisplatin, 0.0008, 0.004, 0.02, 0.1, 0.5 µM for methotrexate) for the comparative studies. The treated cells were then incubated in the same incubator with the mentioned conditions for 72 h. The experiment was repeated at least three times.
(§2) Briefly, 50 μL of ice cold tricholoroacetic acid (TCA) was added to each well and allowed to stand for 30 min at room temperature, followed by rinsing each well with tap water. Then, 100 μL of 0.4% SRB was added to each well to stain living cells for 30 min followed by a rinse with 1% acetic acid. Finally, 100 μL of Tris buffer was added to each well and the optical density (OD) of the treated and nontreated cells were read at 492 nm with a Magellan V.4 microtiter plate reader (Tecan, Salzburg, Austria). The percentage of cell viability was calculated based on (OD492nm of the treated cells/OD492nm of the nontreated cells) × 100. The IC50 values were determined from the dose–response curve of percentage of cell viability versus the concentration of the compounds (μM). Cells viability assay for each treatment was performed in triplicate in at least three independent experiments, and the IC50 values are given as the mean ± SEM.

[2] = tested on: ovarian (A2780), cervical (HeLa) and colorectal (HT29) cancer cells; experiment: SRB assay, range over the three cancer cell lines; type: cell-based; conditions: 72 h, read-out: range of IC50 values in cancer cell lines
Description: as §1
as §2, with “Cells viability assay for each treatment was performed in triplicate in at least three independent experiments, and the IC50 values are given as the mean ± SEM.” left out

[3] = tested on: cardiomyocyte (H9C2) normal cell line; experiment: Sulforhodamine B (SRB) cell viability assay, H9C2; type: cell-based; conditions: Rattus norvegicus, H9c2, 72 h, read-out: IC50 H9C2
Description: as §1
as §2, with “Sulforhodamine B (SRB) assay had been performed after the treated cells were incubated for 72 h. Briefly,” for “Briefly,”

[4] = tested on: colorectal (HT29) cancer cell line; experiment: Sulforhodamine B (SRB) cell viability assay, HT-29; type: cell-based; conditions: Homo sapiens, HT-29, 72 h, read-out: IC50 HT-29
Description: as §1
as §2, with “Sulforhodamine B (SRB) assay had been performed after the treated cells were incubated for 72 h. Briefly,” for “Briefly,”

HeLa cells = experiment: Apoptotic Hoechst 33342 assay, HeLa; type: cell-based
Procedure: (§3) A2780, HT-29 and HeLa cancer cell lines were chosen for evaluating the apoptotic effects of eurycomanone and eurycomalactone. The morphological changes of cells undergoing apoptosis were visualised under a fluoresecence microscope after performing the Hoechst 33342 assay. Briefly, 10 × 10^4 cells were seeded for 500 µL/well of four Labtek® Chamber Slides (Thermo Fisher Scientific, Waltham, MA, USA) and incubated in 5% carbon dioxide in air for 24 h for the cells’ attachment. The cells were treated with concentrations of IC50/5, IC50 and IC50 × 5 values of eurycomanone and eurycomalactone in different wells and further incubated for 6, 24 and 48 h, respectively. Nontreated cells were also included in the experimental design, which acted as a negative control in this study. Following this, the media from each well were discarded and cells were fixed with 4% (w/v) paraformaldehyde for 30 min. The cells were then washed with cold phosphate buffer solution (PBS) prior to staining using Hoechst 33342, according to the method of [26]. Quantitative assessment of apoptotic cells were determined by counting apoptotic nuclei from five randomly chosen areas corroborating visual impression based on the morphology shown in Figure 3 and Figure 4. The apoptotic index (number of apoptotic nuclei per total nuclei × 100) was expressed as a percentage of the mean ± S.E.M and analysed using ANOVA followed by Tukey’s multiple comparison test.

A2780 cells = experiment: Apoptotic Hoechst 33342 assay, A2780; type: cell-based
Procedure: as §3

[5] = tested on: cervical (HeLa) cancer cell line; experiment: Sulforhodamine B (SRB) cell viability assay, HeLa; type: cell-based; conditions: Homo sapiens, HeLa, 72 h, read-out: IC50 HeLa
Description: as §1
as §2, with “Sulforhodamine B (SRB) assay had been performed after the treated cells were incubated for 72 h. Briefly,” for “Briefly,”

[6] = tested on: Cytochrome P450 (CYP) enzymes; set-up: method as in PMID 23881640; conditions: in vitro assay; cited from earlier work
[7] = set-up: method as in PMID 16206032; conditions: in vivo, given orally; cited from earlier work
HT-29 cells = experiment: Apoptotic Hoechst 33342 assay, HT-29; type: cell-based
Procedure: as §3

[8] = tested on: liver (WRL-68) normal cell line; experiment: Sulforhodamine B (SRB) cell viability assay, WRL-68; type: cell-based; conditions: Homo sapiens, WRL68, 72 h, read-out: IC50 WRL-68
Description: as §1
as §2, with “Sulforhodamine B (SRB) assay had been performed after the treated cells were incubated for 72 h. Briefly,” for “Briefly,”

Structure (SMILES): C=C1[C@@H](O)[C@]2(O)OC[C@]34[C@H]2[C@@]2(C)[C@H](O)C(=O)C=C(C)[C@@H]2C[C@H]3OC(=O)[C@H](O)[C@@]14O [Eurycomanone]
- IC50 [1]: 1370 ± 130 nM
- IC50 [2]: 1220 to 4580 nM
- IC50 [3]: > 50000 nM
- IC50 [4]: 1220 ± 110 nM
- Apoptotic index (HeLa cells; IC50, 6 h): 19.98 ± 0.76 ^ab/x %
- Apoptotic index (HeLa cells; IC50, 24 h): 52.57 ± 1.40 ^ab/y %
- Apoptotic index (HeLa cells; IC50, 48 h): 61.16 ± 0.63 ^ab/xz,yz %
- Apoptotic index (HeLa cells; IC50/5, 6 h): 8.42 ± 0.20 ^a/x %
- Apoptotic index (HeLa cells; IC50/5, 24 h): 13.76 ± 1.26 ^a/xy %
- Apoptotic index (HeLa cells; IC50/5, 48 h): 16.79 ± 0.92 ^a/xz,yz %
- Apoptotic index (HeLa cells; IC50 × 5, 6 h): 41.37 ± 0.24 ^ac,bc/x %
- Apoptotic index (HeLa cells; IC50 × 5, 24 h): 94.56 ± 1.16 ^ac,bc/xy %
- Apoptotic index (HeLa cells; IC50 × 5, 48 h): 100.00 ± 0.00 ^ac,bc/xz,yz %
- Apoptotic index (A2780 cells; A2780, IC50, 6 h): 8.48 ± 0.60 ^ab/x %
- Apoptotic index (A2780 cells; A2780, IC50, 24 h): 13.13 ± 1.30 ^ab/y %
- Apoptotic index (A2780 cells; A2780, IC50, 48 h): 31.74 ± 3.19 ^ab/xz,yz %
- Apoptotic index (A2780 cells; A2780, IC50/5, 6 h): 4.30 ± 0.34 ^a/x %
- Apoptotic index (A2780 cells; A2780, IC50/5, 24 h): 7.11 ± 1.60 ^a/xy %
- Apoptotic index (A2780 cells; A2780, IC50/5, 48 h): 14.72 ± 0.59 ^a/xz,yz %
- Apoptotic index (A2780 cells; A2780, IC50 × 5, 6 h): 13.01 ± 0.29 ^ac,bc/x %
- Apoptotic index (A2780 cells; A2780, IC50 × 5, 24 h): 28.90 ± 0.93 ^ac,bc/xy %
- Apoptotic index (A2780 cells; A2780, IC50 × 5, 48 h): 100.00 ± 0.00 ^ac,bc/xz,yz %
- IC50 [5]: 4580 ± 90 nM
- inhibition of cytochromes in vitro [6]: no inhibition
- oral bioavailability [7]: poorly bioavailable
- Apoptotic index (HT-29 cells; HT-29, IC50, 6 h): 5.24 ± 0.17 ^b/x %
- Apoptotic index (HT-29 cells; HT-29, IC50, 24 h): 6.30 ± 1.01 ^b/y %
- Apoptotic index (HT-29 cells; HT-29, IC50, 48 h): 14.80 ± 0.56 ^ab/xz,yz %
- Apoptotic index (HT-29 cells; HT-29, IC50/5, 6 h): 4.08 ± 0.81 ^a/x %
- Apoptotic index (HT-29 cells; HT-29, IC50/5, 24 h): 4.18 ± 0.21 ^a/y %
- Apoptotic index (HT-29 cells; HT-29, IC50/5, 48 h): 4.24 ± 0.20 ^a/z %
- Apoptotic index (HT-29 cells; HT-29, IC50 × 5, 6 h): 5.97 ± 0.35 ^ac/x %
- Apoptotic index (HT-29 cells; HT-29, IC50 × 5, 24 h): 10.95 ± 0.71 ^ac,bc/y %
- Apoptotic index (HT-29 cells; HT-29, IC50 × 5, 48 h): 26.20 ± 1.48 ^ac,bc/xz,yz %
- IC50 [8]: 1340 ± 46 nM
